Reference: US20100298141A1, “SUBSTITUTED PYRIDINE N-OXIDE HERBICIDES” (E. I. DU PONT DE NEMOURS AND COMPANY, priority 2007, published 2010)

Legend:
umbrella sedge = assay: Test C flooded paddy test; type: in vivo, Cyperus difformis; details: Flood
Summary of the method: (§1)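 Test compounds are applied straight into paddy water held 3 cm above the soil surface, with that flood maintained for the whole test. After 13 to 15 days in the greenhouse, each species is scored visually relative to controls.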

soybean = assay: Test C pre-/postemergence test; type: in vivo, Glycine max; details: Postemergence; for Plant response rating, Soybean: scale 0 to 100, 0 no effect, 100 complete control
Excerpt: (§2) Seeds of plant species selected from blackgrass (Alopecurus myosuroides), downy brome (Bromus tectorum), green foxtail (Setaria viridis), Italian ryegrass (Lolium multiflorum), wheat (Triticum aestivum), wild oat (Avena fatua), catchweed bedstraw (Galium aparine), Russian thistle (Salsola kali), […] (Cynodon dactylon), Surinam grass (Brachiaria decumbens), cocklebur (Xanthium strumarium), corn (Zea mays), crabgrass (Digitaria sanguinalis), woolly cupgrass (Eriochloa villosa), giant foxtail (Setaria faberii), Goosegrass (Eleusin indica), johnsongrass (Sorghum halepense), kochia (Kochia scoparia), lambsquarters (Chenopodium album), morningglory (Ipomoea coccinea), eastern black nightshade (Solanum ptycanthum), yellow nutsedge (Cyperus esculentus), pigweed (Amaranthus retroflexus), common ragweed (Ambrosia elation), soybean (Glycine max), common (oilseed) sunflower (Helianthus annuus), and velvetleaf (Abutilon theophrasti) were planted and treated preemergence with test chemicals formulated in a non-phytotoxic solvent mixture which included a surfactant. At the same time, plants selected from these crop and weed species and also winter barley (Hordeum vulgare), canarygrass (Phalaris minor), and chickweed (Stellaria media) were treated with postemergence applications of some of the test chemicals formulated in the same manner. Plants ranged in height from 2 to 18 cm (1- to 4-leaf stage) for postemergence treatments. […] At time of treatment, test pots were flooded to 3 cm above the soil surface, treated by application of test compounds directly to the paddy water, and then maintained at that water depth for the duration of the test. […] A dash (-) response means no test result.

barnyardgrass [1] = assay: Test C flooded paddy test; type: in vivo, Echinochloa crus-galli; details: Flood
Summary of the method: as §1

Goosegrass = assay: Test C pre-/postemergence test; type: in vivo, Eleusin indica; details: Postemergence; for Plant response rating, Goosegrass: scale 0 to 100, 0 no effect, 100 complete control
Excerpt: as §2

kochia = assay: Test C pre-/postemergence test; type: in vivo, Kochia scoparia; details: Postemergence; for Plant response rating, Kochia: scale 0 to 100, 0 no effect, 100 complete control
Excerpt: as §2

crabgrass [2] = assay: Test C pre-/postemergence test; type: in vivo, Digitaria sanguinalis; details: Postemergence; for Plant response rating, Crabgrass, Large: scale 0 to 100, 0 no effect, 100 complete control
Excerpt: as §2

pigweed = assay: Test C pre-/postemergence test; type: in vivo, Amaranthus retroflexus; details: Postemergence; for Plant response rating, Pigweed: scale 0 to 100, 0 no effect, 100 complete control
Excerpt: as §2

Surinam grass = assay: Test C pre-/postemergence test; type: in vivo, Brachiaria decumbens; details: Postemergence; for Plant response rating, Surinam Grass: scale 0 to 100, 0 no effect, 100 complete control
Excerpt: as §2

lambsquarters = assay: Test C pre-/postemergence test; type: in vivo, Chenopodium album; details: Postemergence; for Plant response rating, Lambsquarters: scale 0 to 100, 0 no effect, 100 complete control
Excerpt: as §2

bermudagrass = assay: Test C pre-/postemergence test; type: in vivo, Cynodon dactylon; details: Postemergence; for Plant response rating, Bermudagrass: scale 0 to 100, 0 no effect, 100 complete control
Excerpt: as §2

morningglory = assay: Test A pre-/postemergence greenhouse test; type: in vivo, Ipomoea spp.; details: for Morningglory plant response rating: 0 to 100 scale
Summary of the method: (§3)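 Herbicidal effect is a visual injury score given about ten days post-treatment by comparison with untreated controls. Preemergence plots received a directed spray onto sown loam–sand soil; postemergence plants, at the one- to two-leaf stage and 2–10 cm tall, were sprayed at the same time.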

cocklebur = assay: Test C pre-/postemergence test; type: in vivo, Xanthium strumarium; details: Postemergence; for Plant response rating, Cocklebur: scale 0 to 100, 0 no effect, 100 complete control
Excerpt: as §2

giant foxtail = assay: Test A pre-/postemergence greenhouse test; type: in vivo, Setaria faberi; details: for Foxtail, Giant plant response rating: 0 to 100 scale
Summary of the method: as §3

Italian ryegrass = assay: Test C pre-/postemergence test; type: in vivo, Lolium multiflorum; details: Postemergence; for Plant response rating, Ryegrass, Italian: scale 0 to 100, 0 no effect, 100 complete control
Excerpt: as §2

barnyardgrass [3] = assay: Test A pre-/postemergence greenhouse test; type: in vivo, Echinochloa crus-galli; details: for Barnyardgrass plant response rating: 0 to 100 scale
Summary of the method: as §3

crabgrass [4] = assay: Test A pre-/postemergence greenhouse test; type: in vivo, Digitaria sanguinalis; details: for Crabgrass, Large plant response rating: 0 to 100 scale
Summary of the method: as §3

[5] = 31 g ai/ha, scale 0 to 100 (0 no effect, 100 complete control)
[6] = 62 g ai/ha, scale 0 to 100, 0 no effect, 100 complete control, 13 to 15 days
[7] = 125 g ai/ha, scale 0 to 100, 0 no effect, 100 complete control, 13 to 15 days
[8] = 250 g ai/ha, scale 0 to 100, 0 no effect, 100 complete control, 13 to 15 days
[9] = Postemergence, 125 g ai/ha, 0 is no effect, 100 is complete control
[10] = Postemergence, 500 g ai/ha, 0 is no effect, 100 is complete control
[11] = Preemergence, 125 g ai/ha, 0 no effect, 100 complete control
[12] = Preemergence, 500 g ai/ha, 0 to 100 scale where 0 is no effect and 100 is complete control

CC(c1c(C(F)(F)F)nn(C)c1Cl)S(=O)(=O)c1ccc(Cl)c[n+]1[O-] (racemic) [Compound 40]
Plant response rating, Sedge, Umbrella (umbrella sedge; [5]): 20
Plant response rating, Sedge, Umbrella (umbrella sedge; [6]): 45
Plant response rating, Sedge, Umbrella (umbrella sedge; [7]): 75
Plant response rating, Sedge, Umbrella (umbrella sedge; [8]): 85
Plant response rating (0 to 100), Soybean (soybean; 31 g ai/ha): 0
Plant response rating (0 to 100), Soybean (soybean; 62 g ai/ha): 0
Plant response rating, Soybean (soybean; 125 g ai/ha): 0
Plant response rating, Soybean (soybean; 250 g ai/ha): 0
Plant response rating, Barnyardgrass (barnyardgrass [1]; [5]): 0
Plant response rating, Barnyardgrass (barnyardgrass [1]; [6]): 15
Plant response rating, Barnyardgrass (barnyardgrass [1]; [7]): 60
Plant response rating, Barnyardgrass (barnyardgrass [1]; [8]): 65
Plant response rating (0 to 100), Goosegrass (Goosegrass; 31 g ai/ha): 0
Plant response rating, Goosegrass (Goosegrass; 62 g ai/ha): 0
Plant response rating, Goosegrass (Goosegrass; 125 g ai/ha): 0
Plant response rating, Goosegrass (Goosegrass; 250 g ai/ha): 0
Plant response rating (0 to 100), Kochia (kochia; 31 g ai/ha): 0
Plant response rating, Kochia (kochia; 62 g ai/ha): 0
Plant response rating, Kochia (kochia; 125 g ai/ha): 0
Plant response rating, Kochia (kochia; 250 g ai/ha): 0
Plant response rating (0 to 100), Crabgrass, Large (crabgrass [2]; 31 g ai/ha): 0
Plant response rating, Crabgrass, Large (crabgrass [2]; 62 g ai/ha): 0
Plant response rating, Crabgrass, Large (crabgrass [2]; 125 g ai/ha): 0
Plant response rating, Crabgrass, Large (crabgrass [2]; 250 g ai/ha): 0
Plant response rating (0 to 100), Pigweed (pigweed; 31 g ai/ha): 0
Plant response rating (0 to 100), Pigweed (pigweed; 62 g ai/ha): 0
Plant response rating, Pigweed (pigweed; 125 g ai/ha): 0
Plant response rating, Pigweed (pigweed; 250 g ai/ha): 0
Plant response rating (0 to 100), Surinam Grass (Surinam grass; 31 g ai/ha): 0
Plant response rating (0 to 100), Surinam Grass (Surinam grass; 62 g ai/ha): 0
Plant response rating, Surinam Grass (Surinam grass; 125 g ai/ha): 0
Plant response rating, Surinam Grass (Surinam grass; 250 g ai/ha): 0
Plant response rating (0 to 100), Lambsquarters (lambsquarters; 31 g ai/ha): 0
Plant response rating, Lambsquarters (lambsquarters; 62 g ai/ha): 0
Plant response rating, Lambsquarters (lambsquarters; 125 g ai/ha): 0
Plant response rating, Lambsquarters (lambsquarters; 250 g ai/ha): 0
Plant response rating (0 to 100), Bermudagrass (bermudagrass; 31 g ai/ha): 0
Plant response rating, Bermudagrass (bermudagrass; 62 g ai/ha): 0
Plant response rating, Bermudagrass (bermudagrass; 125 g ai/ha): 10
Plant response rating, Bermudagrass (bermudagrass; 250 g ai/ha): 30
Morningglory plant response rating (morningglory; [9]): 0
Morningglory plant response rating (morningglory; [10]): 30
Morningglory plant response rating (morningglory; [11]): 0
Plant response rating, Morningglory (morningglory; [12]): 80
Plant response rating (0 to 100), Cocklebur (cocklebur; 31 g ai/ha): 0
Plant response rating, Cocklebur (cocklebur; 62 g ai/ha): 0
Plant response rating, Cocklebur (cocklebur; 125 g ai/ha): 0
Plant response rating, Cocklebur (cocklebur; 250 g ai/ha): 0
Foxtail, Giant plant response rating (giant foxtail; [9]): 80
Foxtail, Giant plant response rating (giant foxtail; [10]): 90
Foxtail, Giant plant response rating (giant foxtail; [11]): 90
Plant response rating, Foxtail, Giant (giant foxtail; [12]): 100
Plant response rating (0 to 100), Ryegrass, Italian (Italian ryegrass; 31 g ai/ha): 0
Plant response rating (0 to 100), Ryegrass, Italian (Italian ryegrass; 62 g ai/ha): 0
Plant response rating, Ryegrass, Italian (Italian ryegrass; 125 g ai/ha): 40
Plant response rating, Ryegrass, Italian (Italian ryegrass; 250 g ai/ha): 45
Barnyardgrass plant response rating (barnyardgrass [3]; [9]): 80
Barnyardgrass plant response rating (barnyardgrass [3]; [10]): 90
Barnyardgrass plant response rating (barnyardgrass [3]; [11]): 70
Plant response rating, Barnyardgrass (barnyardgrass [3]; [12]): 100
Crabgrass, Large plant response rating (crabgrass [4]; [9]): 80
Crabgrass, Large plant response rating (crabgrass [4]; [10]): 80
Crabgrass, Large plant response rating (crabgrass [4]; [11]): 60
Plant response rating, Crabgrass, Large (crabgrass [4]; [12]): 90
